Reference: PMC6820371, “Terbium-161 for PSMA-targeted radionuclide therapy of prostate cancer” (European Journal of Nuclear Medicine and Molecular Imaging, 2019)
Where two headings read alike, the source gives them in different places.

Legend:
[1] = test system: PC-3 PIP/flu tumor-bearing mice; details: for Tumor-to-blood / Tumor-to-kidney / Tumor-to-liver: PC-3 PIP tumor; for Biodistribution: Blood / Biodistribution: Bone / Biodistribution: Heart / Biodistribution: Intestines / Biodistribution: Kidneys / Biodistribution: Liver / Biodistribution: Lung / Biodistribution: Muscle / Biodistribution: PC-3 PIP tumor / Biodistribution: PC-3 flu tumor / Biodistribution: Salivary glands / Biodistribution: Spleen / Biodistribution: Stomach: 5.0 MBq, 1 nmol i.v.
Experimental: Biodistribution studies were performed 12–14 days after tumor cell inoculation when the tumor xenografts reached an average tumor volume of about ~50–200 mm^3 (Supplementary material). PSMA-617 was labeled with ^161Tb at a specific activity of 5.0 MBq/nmol and diluted in saline. […] The mice were sacrificed at 1 h, 4 h, 24 h, 48 h, or 96 h post injection (p.i.) and selected tissues and organs were collected, weighed, and measured using a γ-counter (Perkin Elmer, Wallac Wizard 1480). Groups of 3–5 mice were sacrificed at each time point. The results were decay-corrected and listed as percentage of the injected activity per gram of tissue mass (% IA/g). Data are presented as the average ± standard deviation (SD).
A p-value of < 0.05 was considered statistically significant.
Biodistribution studies were performed 12–14 days after tumor cell inoculation. The experimental procedure of the biodistribution studies is described in the main manuscript.

[2] = test system: mice inoculated with PC-3 PIP cells; test: Additional therapy study (injection 2 days after tumor cell inoculation); assay type: in vivo; details: for Median Survival: control 26 days
Experimental: The day of the treatment, two days after tumor cell inoculation, was defined as Day 0 of the study (Table S7).
Endpoint criteria: The mice were monitored until they reached an endpoint (definition of endpoints, see Chapter 13) or over the whole period of 38 days when the study was terminated.
Data analysis of the therapy study: The tumor growth delay indices (TGDI2 and TGDI5) were calculated as reported in the Methods of the main manuscript. The median survival was determined using GraphPad Prism software (version 7).

[3] = test system: PC-3 PIP/flu tumor-bearing mice; details: ~25 MBq
Experimental: In a separate study, SPECT/CT experiments were performed 12–14 days after tumor cell inoculation using a dedicated small-animal SPECT/CT camera (NanoSPECT/CT^TM, Mediso Medical Imaging Systems, Budapest, Hungary) as previously reported (Supplementary material) [34]. ^161Tb-PSMA-617 (~25 MBq/nmol) was diluted in saline for injection. Scans were acquired at 1 h, 4 h, and 24 h after injection of the radioligands (~25 MBq, 1 nmol, 100 μL). During the in-vivo scans, mice were anesthetized using a mixture of Isoflurane and oxygen.
Methods: Mice were inoculated with PC-3 PIP/flu tumor cells, as described for biodistribution studies, and injected with ^161Tb-PSMA-617 (~25 MBq, 1 nmol per mouse) about 12-14 days later. Under these conditions, the SPECT scans lasted for ~40 min. […] During the in-vivo scans, mice were anesthetized using a mixture of Isoflurane and oxygen.
SPECT/CT experiments were performed using a dedicated small-animal SPECT/CT camera (NanoSPECT/CT^TM, Mediso Medical Imaging Systems, Budapest, Hungary) as previously reported [4, 10]. The images were acquired using Nucline software (version 1.02, Mediso Ltd., Budapest, Hungary). The real-time CT reconstruction used a cone-beam-filtered backprojection. […] The lower scale of radioactivity was cut by 1% to make tumors and kidneys best visible.

SMILES: O=C([O-])CN1CCN(CC(=O)[O-])CCN(CC(=O)NCC2CCC(C(=O)NC(Cc3ccc4ccccc4c3)C(=O)NCCCCC(NC(=O)NC(CCC(=O)O)C(=O)O)C(=O)O)CC2)CCN(CC(=O)[O-])CC1.[161Tb+3] (centres unmarked) [^161Tb-PSMA-617]
- Tumor-to-blood ([1]; 24 h p.i.): 1668 ± 302
- Tumor-to-kidney ([1]; 24 h p.i.): 43 ± 10
- Tumor-to-liver ([1]; 24 h p.i.): 383 ± 65
- Biodistribution: Blood ([1]; 48 h p.i.): 0.02 ± 0.00 %IA/g
- Biodistribution: Bone ([1]; 48 h p.i.): 0.05 ± 0.01 %IA/g
- Biodistribution: Heart ([1]; 48 h p.i.): 0.03 ± 0.00 %IA/g
- Biodistribution: Intestines ([1]; 48 h p.i.): 0.02 ± 0.00 %IA/g
- Biodistribution: Kidneys ([1]; 48 h p.i.): 0.58 ± 0.05 %IA/g
- Biodistribution: Liver ([1]; 48 h p.i.): 0.12 ± 0.01 %IA/g
- Biodistribution: Lung ([1]; 48 h p.i.): 0.04 ± 0.01 %IA/g
- Biodistribution: Muscle ([1]; 48 h p.i.): 0.01 ± 0.00 %IA/g
- Biodistribution: PC-3 PIP tumor ([1]; 48 h p.i.): 28 ± 4.1 %IA/g
- Biodistribution: PC-3 flu tumor ([1]; 48 h p.i.): 0.06 ± 0.01 %IA/g
- Biodistribution: Salivary glands ([1]; 48 h p.i.): 0.03 ± 0.00 %IA/g
- Biodistribution: Spleen ([1]; 48 h p.i.): 0.07 ± 0.00 %IA/g
- Biodistribution: Stomach ([1]; 48 h p.i.): 0.03 ± 0.00 %IA/g
- Tumor-to-blood ([1]; 48 h p.i.): 1346 ± 166
- Tumor-to-kidney ([1]; 48 h p.i.): 49 ± 7.2
- Tumor-to-liver ([1]; 48 h p.i.): 229 ± 30
- Biodistribution: Blood ([1]; 96 h p.i.): 0.01 ± 0.00 %IA/g
- Biodistribution: Bone ([1]; 96 h p.i.): 0.06 ± 0.01 %IA/g
- Biodistribution: Heart ([1]; 96 h p.i.): 0.02 ± 0.00 %IA/g
- Biodistribution: Intestines ([1]; 96 h p.i.): 0.12 ± 0.12 %IA/g
- Biodistribution: Kidneys ([1]; 96 h p.i.): 0.40 ± 0.04 %IA/g
- Biodistribution: Liver ([1]; 96 h p.i.): 0.10 ± 0.00 %IA/g
- Biodistribution: Lung ([1]; 96 h p.i.): 0.03 ± 0.00 %IA/g
- Biodistribution: Muscle ([1]; 96 h p.i.): 0.01 ± 0.00 %IA/g
- Biodistribution: PC-3 PIP tumor ([1]; 96 h p.i.): 22 ± 4.3 %IA/g
- Biodistribution: PC-3 flu tumor ([1]; 96 h p.i.): 0.04 ± 0.01 %IA/g
- Biodistribution: Salivary glands ([1]; 96 h p.i.): 0.03 ± 0.00 %IA/g
- Biodistribution: Spleen ([1]; 96 h p.i.): 0.07 ± 0.01 %IA/g
- Biodistribution: Stomach ([1]; 96 h p.i.): 0.66 ± 1.01 %IA/g
- Tumor-to-blood ([1]; 96 h p.i.): 2053 ± 412
- Tumor-to-kidney ([1]; 96 h p.i.): 56 ± 9.7
- Tumor-to-liver ([1]; 96 h p.i.): 224 ± 33
- First mouse euthanized ([2]; 2.5 MBq): 26 days
- TGDI2 ([2]; 2.5 MBq): 1.0 ± 0.4
- TGDI5 ([2]; 2.5 MBq): 1.2 ± 0.3
- Median Survival ([2]; 2.5 MBq): 31 days
- Last mouse euthanized ([2]; 2.5 MBq, study end Day 38): study end
- First mouse euthanized ([2]; 5.0 MBq): 30 days
- TGDI2 ([2]; 5.0 MBq): 1.6 ± 0.4
- Median Survival ([2]; 5.0 MBq): 34 days
- Last mouse euthanized ([2]; 5.0 MBq, study end Day 38): study end
- Survival ([2]; 10 MBq): survived until the end of the study at Day 38
- Cases in which tumors started to grow ([2]; 10 MBq, from Day 25 and Day 35 on): 2 of 8
- First mouse euthanized ([2]; 10 MBq, study end Day 38): study end
- Last mouse euthanized ([2]; 10 MBq, study end Day 38): study end
- Uptake in the PSMA-negative PC-3 flu tumor (SPECT/CT) ([3]; 1 h, 4 h and 24 h p.i.): negligible uptake
- Renal excretion of activity (SPECT/CT) ([3]; after 4 h): almost entirely excreted
